Assays:
mice on rotarod = experiment: Mouse rotarod assay (minimal muscular or neurological impairment); format: in vivo
Description: To assess a compound's undesirable side effects (toxicity), animals were monitored for overt signs of impaired neurological or muscular function. In mice, the rotarod procedure (Dunham and Miya, J. Am. Pharmacol. Assoc. 46:208-209 (1957)) is used to disclose minimal muscular or neurological impairment (MMI). When a mouse is placed on a rod that rotates at a speed of 6 rpm, the animal can maintain its equilibrium for long periods of time. The animal is considered toxic if it falls off this rotating rod three times during a 1-min period.

[1] = test system: Lamina I/II spinal cord neurons; experiment: Lamina assay: current-clamp recordings on lamina I/II spinal cord neurons; format: cell-based, rat; conditions: Lamina I and II; for % Spike Change (Mean; % change from control): tonic firing neurons, current-clamp
Excerpt: Male Wistar rats (P6 to P9 for voltage-clamp and P15 to P18 for current-clamp recordings) were anaesthetized through intraperitoneal injection of Inactin (Sigma). The spinal cord was then rapidly dissected out and placed in an ice-cold solution protective sucrose solution containing (in mM): 50 sucrose, 92 NaCl, 15 D-Glucose, 26 NaHCO3, 5 KCl, 1.25 NaH2PO4, 0.5 CaCl2, 7 MgSO4, 1 kynurenic acid, and bubbled with 5% CO2/95% O2. The meninges, dura, and dorsal and ventral roots were then removed from the lumbar region of the spinal cord under a dissecting microscope. The “cleaned” lumbar region of the spinal cord was glued to the vibratome stage and immediately immersed in ice cold, bubbled, sucrose solution. For current-clamp recordings, 300 to 350 μm parasagittal slices were cut to preserve the dendritic arbour of lamina I neurons, while 350 to 400 μm transverse slices were prepared for voltage-clamped […] channel recordings. Slices were allowed to recover for 1 hour at 35° C. in Ringer solution containing (in mM): 125 NaCl, 20 D-Glucose, 26 NaHCO3, 3 KCl, 1.25 NaH2PO4, 2 CaCl2, 1 MgCl2, 1 kynurenic acid, 0.1 picrotoxin, bubbled with 5% CO2/95% O2. The slice recovery chamber was then returned to room temperature (20 to 22° C.) and all recordings were performed at this temperature.
Neurons were visualized using IR-DIC optics (Zeiss Axioskop 2 FS plus, Gottingen, Germany), and neurons from lamina I and the outer layer of lamina II were selected based on their location relative to the substantia gelatinosa layer. Neurons were patch-clamped using borosilicate glass patch pipettes with resistances of 3 to 6 MΩ. Current-clamp recordings of lamina I/II neurons in the intact slice, the external recording solution was the above Ringer solution, while the internal patch pipette solution contained (in mM): 140 KGluconate, 4 NaCl, 10 HEPES, 1 EGTA, 0.5 MgCl2, 4 MgATP, 0.5 Na2GTP, adjusted to pH 7.2 with 5 M KOH and to 290 mOsm with D-Mannitol (if necessary). Only tonic firing neurons were selected for current-clamp experiments, while phasic, delayed onset and single spike neurons were discarded (22). Recordings were digitized at 50 kHz and low-pass filtered at 2.4 kHz.

human Nav1.5 channel = molecular target: T1, human Nav1.5 channel (Homo sapiens, UniProt Q14524); experiment: NaV1.5 sodium channel screening assay, PatchXpress automated electrophysiology, cardiac action potential waveform 1 Hz; format: cell-based; conditions: cardiac action potential waveform at 1 Hz; HEK cells; read-out: HNAv 1.5 Cardiac AP 1 Hz IC50
T1 construct: expressed in transfected cells; host or cells: HEK cells
T1 sequence (Q14524 whole entry): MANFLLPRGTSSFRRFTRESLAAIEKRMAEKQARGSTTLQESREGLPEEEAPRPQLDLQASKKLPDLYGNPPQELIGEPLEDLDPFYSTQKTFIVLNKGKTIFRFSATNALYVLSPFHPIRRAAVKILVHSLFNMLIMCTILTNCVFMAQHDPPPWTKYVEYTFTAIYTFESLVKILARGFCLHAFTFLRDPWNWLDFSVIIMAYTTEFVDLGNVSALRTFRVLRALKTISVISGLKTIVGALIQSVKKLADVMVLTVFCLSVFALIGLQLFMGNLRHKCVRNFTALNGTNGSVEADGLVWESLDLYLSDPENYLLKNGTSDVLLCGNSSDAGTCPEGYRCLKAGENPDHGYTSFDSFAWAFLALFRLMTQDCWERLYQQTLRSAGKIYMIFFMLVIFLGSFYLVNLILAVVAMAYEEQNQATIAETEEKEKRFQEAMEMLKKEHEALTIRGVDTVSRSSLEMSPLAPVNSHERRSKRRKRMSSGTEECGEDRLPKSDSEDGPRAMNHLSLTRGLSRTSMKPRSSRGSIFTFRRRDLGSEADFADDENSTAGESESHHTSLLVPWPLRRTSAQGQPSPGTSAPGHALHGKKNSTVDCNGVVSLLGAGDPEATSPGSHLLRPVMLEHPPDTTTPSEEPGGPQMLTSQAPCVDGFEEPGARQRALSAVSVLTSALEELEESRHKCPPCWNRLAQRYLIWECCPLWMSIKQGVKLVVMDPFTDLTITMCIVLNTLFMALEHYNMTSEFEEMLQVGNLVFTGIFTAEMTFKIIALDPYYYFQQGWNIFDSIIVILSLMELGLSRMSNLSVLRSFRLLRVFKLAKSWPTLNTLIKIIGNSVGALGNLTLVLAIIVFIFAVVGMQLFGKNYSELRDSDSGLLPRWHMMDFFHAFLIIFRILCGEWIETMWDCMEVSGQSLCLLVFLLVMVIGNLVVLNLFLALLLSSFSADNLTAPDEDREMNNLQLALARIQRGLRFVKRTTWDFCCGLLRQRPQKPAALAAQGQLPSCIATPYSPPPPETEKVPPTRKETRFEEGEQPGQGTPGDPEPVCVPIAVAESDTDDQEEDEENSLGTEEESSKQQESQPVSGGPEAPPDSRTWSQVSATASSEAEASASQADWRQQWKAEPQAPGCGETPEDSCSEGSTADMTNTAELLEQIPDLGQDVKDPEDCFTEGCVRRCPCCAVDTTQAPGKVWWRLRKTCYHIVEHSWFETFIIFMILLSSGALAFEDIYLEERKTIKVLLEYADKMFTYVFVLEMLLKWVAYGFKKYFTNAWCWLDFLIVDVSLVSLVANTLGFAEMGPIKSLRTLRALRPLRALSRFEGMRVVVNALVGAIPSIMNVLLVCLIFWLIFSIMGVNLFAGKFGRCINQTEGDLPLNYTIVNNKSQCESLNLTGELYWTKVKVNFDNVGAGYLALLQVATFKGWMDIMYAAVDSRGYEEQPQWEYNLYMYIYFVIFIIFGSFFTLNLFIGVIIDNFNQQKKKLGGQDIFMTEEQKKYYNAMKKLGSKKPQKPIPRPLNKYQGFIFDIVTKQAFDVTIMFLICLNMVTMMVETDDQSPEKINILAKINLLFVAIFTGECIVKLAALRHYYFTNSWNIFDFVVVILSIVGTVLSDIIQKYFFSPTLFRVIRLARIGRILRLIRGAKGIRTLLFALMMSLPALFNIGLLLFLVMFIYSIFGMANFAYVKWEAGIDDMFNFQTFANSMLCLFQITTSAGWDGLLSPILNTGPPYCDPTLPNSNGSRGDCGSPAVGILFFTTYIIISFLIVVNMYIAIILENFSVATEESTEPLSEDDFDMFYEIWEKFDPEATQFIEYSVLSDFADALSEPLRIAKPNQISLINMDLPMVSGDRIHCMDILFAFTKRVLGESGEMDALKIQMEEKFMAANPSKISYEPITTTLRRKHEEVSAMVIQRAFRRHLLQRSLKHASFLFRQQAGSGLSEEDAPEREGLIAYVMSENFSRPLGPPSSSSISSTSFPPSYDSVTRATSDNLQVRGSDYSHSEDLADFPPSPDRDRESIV
Description: Inhibition of the TTX-resistant NaV1.5 sodium channel, a key cardiac ion channel, can have profound effects on the duration and amplitude of the cardiac action potential and can result in arrhythmias and other heart malfunctions. To assess the potential cardiac liability of compounds at an early stage in the drug discovery process, a NaV1.5 sodium channel screening assay is performed on Molecular Device's PatchXpress™ automated electrophysiology platform. Under voltage-calmp conditions, NaV1.5 currents were recorded from HEK cells expressing the human Nav1.5 channel in the absence and presence of increasing concentrations of the test compound to obtain an IC50 value. The external recording solution contained (in mM): 90 TEACl, 50 NaCl, 1.8 CaCl, 1 MgCl2, 10 HEPES, 10 glucose, adjusted to pH 7.4 with TEA-OH and to 300 mOsm with sucrose (if necessary), while the internal patch pipette solution contained (in mM): 129 CsF, 2 MgCl2, 11 EGTA, 10 HEPES, 3 Na2ATP adjusted to pH 7.2 with CsOH and to 290 mOsm with sucrose (if necessary). NaV1.5 channel currents were evoked using a cardiac action potential waveform at 1 Hz, digitized at 31.25 kHz and low-pass filtered at 12 kHz.

[2] = Rat Early Pharmacokinetic (EPK) study; format: in vivo; conditions: PO, 3 mg/kg, formulation PG (propylene glycol); for Tmax: male, Sprague-Dawley, blood
Description: Male Sprague-Dawley rats were dosed via oral (PO) gavage in the detailed formulation. Blood samples were collected from the animals at 6 timepoints out to 4 hours post-dose. Pharmacokinetic analysis was performed on the LC-MS/MS measured concentrations for each timepoint of each compound.

[3] = test system: seizures induced by 6 Hz corneal stimulation in CF1 mice; experiment: 6 Hz psychomotor seizure model of partial epilepsy; format: in vivo, mouse; design: Epilepsy 6 Hz (% protected): concentration or dose not given beside the values; conditions: 32 mA; for ED50: Mus musculus
Description: Compounds were evaluated for the protection against seizures induced by a 6 Hz, 0.2 ms rectangular pulse width of 3 s duration, at a stimulus intensity of 32 mA (CC97) applied to the cornea of male CF1 mice (20-30 g) according to procedures described by Barton et al, “Pharmacological Characterization of the 6 Hz Psychomotor Seizure Model of Partial Epilepsy,” Epilepsy Res. 47(3):217-27 (2001). Seizures are characterised by the expression of one or more of the following behaviours: stun, forelimb clonus, twitching of the vibrissae and Straub-tail immediately following electrical stimulation.

Row | Structure (SMILES) | % Impaired (mice on rotarod; 0.25 hr) [%] | % Impaired (mice on rotarod; 0.5 hr) [%] | % Impaired (mice on rotarod; 1 hr) [%] | % Impaired (mice on rotarod; 2 hr) [%] | % Impaired (mice on rotarod; 4 hr) [%] | % Spike Change (Mean; % change from control) [1] [%] | EC50 ([1]; Rattus norvegicus, Neuron) [µM] | IC50 (human Nav1.5 channel) [µM] | Dose Normalized AUC [2] | Dose Normalized Cmax [2] [nM] | Tmax [2] [min] | Epilepsy 6 Hz (% protected) ([3]; 0.25 hr) [%] | Epilepsy 6 Hz (% protected) ([3]; 0.5 hr) [%] | Epilepsy 6 Hz (% protected) ([3]; 1 hr) [%] | ED50 [3] [mg/kg] | Epilepsy 6 Hz (% protected) ([3]; 2 hr) [%] | Epilepsy 6 Hz (% protected) ([3]; 4 hr) [%]
1 | O=C(CN1CCNCC1=O)Nc1cc(C(F)(F)F)cc(C(F)(F)F)c1 [Compound 1, N-(3,5-bis(trifluoromethyl)phenyl)-2-(2-oxopiperazin-1-yl)acetamide] | 0 | 0 | 0 | 0 | 0 | −47.3 | 0.482 | 100 | 1,118 nM*h | 438 | 15 | 75 | 100 | 75 | 128 |  | 
2 | O=C1CN(CC(=O)Nc2cc(C(F)(F)F)cc(C(F)(F)F)c2)CCN1 [Compound 9, N-(3,5-bis(trifluoromethyl)phenyl)-2-(3-oxopiperazin-1-yl)acetamide] | 0 | 0 | 0 | 0 | 0 | −35.5 |  | 80 | 1,120 nM*h | 484 | 84 | 75 | 25 | 88 | 90 | 75 | 0
